Source: PMC10518255, “A first-in-class pan-lysyl oxidase inhibitor impairs stromal remodeling and enhances gemcitabine response and survival in pancreatic cancer” (Nature Cancer, 2023)
pIC50: −log10 of the molar value. Where “and” joins values, the source holds several entries; their conditions need not be identical. Equal values may be shown once.

What was measured:
[1] = Preclinical genotoxicity and toxicity studies; assay type: in vivo
Recombinant MAO-B = Recombinant MAO-B (Homo sapiens, UniProt P27338); test: IC50 determination against other human amine oxidases; assay type: biochemical
Chain of Recombinant MAO-B (P27338 whole entry): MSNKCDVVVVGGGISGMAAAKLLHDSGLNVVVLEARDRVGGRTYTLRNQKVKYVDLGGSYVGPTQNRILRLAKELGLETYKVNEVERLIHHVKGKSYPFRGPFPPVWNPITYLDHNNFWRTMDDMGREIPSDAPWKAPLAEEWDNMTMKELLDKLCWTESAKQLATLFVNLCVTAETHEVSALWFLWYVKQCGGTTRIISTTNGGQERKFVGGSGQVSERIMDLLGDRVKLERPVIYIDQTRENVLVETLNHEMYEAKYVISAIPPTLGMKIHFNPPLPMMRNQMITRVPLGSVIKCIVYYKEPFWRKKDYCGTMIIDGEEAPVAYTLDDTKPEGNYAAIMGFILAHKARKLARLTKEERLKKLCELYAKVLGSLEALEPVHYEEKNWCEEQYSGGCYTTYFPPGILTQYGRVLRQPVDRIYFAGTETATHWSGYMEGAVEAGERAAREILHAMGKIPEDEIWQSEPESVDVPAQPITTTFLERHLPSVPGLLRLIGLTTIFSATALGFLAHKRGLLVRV
Source text: (§1) Data are presented as mean ± s.d. […] Data presented as mean ± s.d. […] Source data TEXT PRINTED IN THE PICTURE: (b) PXS-5505: Recombinant DAO IC50 (nM): >30,000; Recombinant SSAO/VAP1 IC50 (nM): >30,000; Recombinant MAO-A IC50 (nM): >30,000; Recombinant MAO-B IC50 (nM): >30,000 | (f) PXS-5505: Fibroblast LOX IC50 (nM): 4,930; Recombinant LOXL-1 IC50 (nM): 1,590; Recombinant LOXL-2 IC50 (nM): 570; Recombinant LOXL-3 IC50 (nM): 1,800; Recombinant LOXL-4 IC50 (nM): 190

DAO [2] = biological target: T1, DAO (Homo sapiens, UniProt P19801); test: as above; assay type: biochemical
T1 sequence (P19801 20-751): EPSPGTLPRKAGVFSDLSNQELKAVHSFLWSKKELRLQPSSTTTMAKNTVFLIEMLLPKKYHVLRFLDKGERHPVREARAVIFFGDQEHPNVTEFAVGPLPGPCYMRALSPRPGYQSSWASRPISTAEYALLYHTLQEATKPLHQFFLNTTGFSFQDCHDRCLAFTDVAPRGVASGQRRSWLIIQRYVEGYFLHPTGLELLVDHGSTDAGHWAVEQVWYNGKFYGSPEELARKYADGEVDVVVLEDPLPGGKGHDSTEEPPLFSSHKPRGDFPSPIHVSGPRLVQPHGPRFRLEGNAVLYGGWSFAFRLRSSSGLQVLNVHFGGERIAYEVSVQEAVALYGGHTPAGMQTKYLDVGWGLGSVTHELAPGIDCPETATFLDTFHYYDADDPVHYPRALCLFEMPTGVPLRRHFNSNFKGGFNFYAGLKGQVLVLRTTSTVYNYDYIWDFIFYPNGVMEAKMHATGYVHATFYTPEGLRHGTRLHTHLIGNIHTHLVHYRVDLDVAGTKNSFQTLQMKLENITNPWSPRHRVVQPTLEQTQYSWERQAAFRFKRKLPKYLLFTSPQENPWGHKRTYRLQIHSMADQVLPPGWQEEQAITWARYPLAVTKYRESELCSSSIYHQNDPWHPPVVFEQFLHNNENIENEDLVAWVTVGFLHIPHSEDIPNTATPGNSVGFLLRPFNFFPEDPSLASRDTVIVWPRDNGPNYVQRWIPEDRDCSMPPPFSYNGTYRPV
Source text: as §1

Recombinant MAO-A = Recombinant MAO-A (Homo sapiens, UniProt P21397); test: as above; assay type: biochemical
Chain of Recombinant MAO-A (P21397 whole entry): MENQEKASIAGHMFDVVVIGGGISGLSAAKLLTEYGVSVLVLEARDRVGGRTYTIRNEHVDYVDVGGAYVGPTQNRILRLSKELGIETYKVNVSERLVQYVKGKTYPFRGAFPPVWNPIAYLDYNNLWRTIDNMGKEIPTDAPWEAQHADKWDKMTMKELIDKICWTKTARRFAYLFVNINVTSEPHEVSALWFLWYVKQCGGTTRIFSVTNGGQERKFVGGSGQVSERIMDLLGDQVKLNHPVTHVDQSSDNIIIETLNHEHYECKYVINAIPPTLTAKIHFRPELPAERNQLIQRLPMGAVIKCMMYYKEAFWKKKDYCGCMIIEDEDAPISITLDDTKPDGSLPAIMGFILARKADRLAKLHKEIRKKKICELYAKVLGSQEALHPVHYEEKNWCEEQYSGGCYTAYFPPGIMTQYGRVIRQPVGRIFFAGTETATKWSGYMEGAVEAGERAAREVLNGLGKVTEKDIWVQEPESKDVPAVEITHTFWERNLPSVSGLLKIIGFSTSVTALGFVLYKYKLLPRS
Source text: as §1

Recombinant SSAO/VAP1 = Recombinant SSAO/VAP1 (Homo sapiens, UniProt Q16853); test: as above; assay type: biochemical
Source text: as §1

KPC CCs = test: 2D cell viability assay (MTS); assay type: cell-based, mouse; conditions: for 2D cell viability (MTS assay): Cancer cells, replicates
Description: (§2) The 2D cell viability assays were performed using KPC CAFs and CCs seeded at (250 CAFs per well) and (500 CCs per well) in a 96-well plate. MTS solution (Promega) was added to the cells at a 1:20 dilution and cells were incubated at 37 °C for 2 h. Cell proliferation rates were measured by detecting the absorbance at 490 nm using a microplate reader. Three biological repeats were performed.
(§3) Data presented as mean values +/− SD. f. […] Data presented as mean values +/− SD. […] Data presented as mean values +/− SD. […] Data presented as mean values +/− SD. Ordinary one-way ANOVA for multiple comparison test performed. Source data

[3] = 2D cell viability assay (MTS); assay type: cell-based, mouse; conditions: mouse, replicates
Description: as §2, §3

DAO [4] = biological target: T1, DAO; test: Substrate turnover by H2O2 release, amplex red coupled fluorometric activity assay (Extended Data Fig. 3a); assay type: biochemical
Source text: (§4) Specifically, BAPN is oxidized by diamine oxidase (DAO) and semicarbazide-sensitive amine oxidase (SSAO)/vascular adhesion protein 1 (VAP-1) in the vasculature (Extended Data Fig. 3a), which releases hydrogen […] (H2O2) and aldehyde in humans leading to toxicity.
as §3

SSAO = biological target: T2, SSAO (Homo sapiens, UniProt Q16853); test: as above; assay type: biochemical
T2 sequence (Q16853 1-763): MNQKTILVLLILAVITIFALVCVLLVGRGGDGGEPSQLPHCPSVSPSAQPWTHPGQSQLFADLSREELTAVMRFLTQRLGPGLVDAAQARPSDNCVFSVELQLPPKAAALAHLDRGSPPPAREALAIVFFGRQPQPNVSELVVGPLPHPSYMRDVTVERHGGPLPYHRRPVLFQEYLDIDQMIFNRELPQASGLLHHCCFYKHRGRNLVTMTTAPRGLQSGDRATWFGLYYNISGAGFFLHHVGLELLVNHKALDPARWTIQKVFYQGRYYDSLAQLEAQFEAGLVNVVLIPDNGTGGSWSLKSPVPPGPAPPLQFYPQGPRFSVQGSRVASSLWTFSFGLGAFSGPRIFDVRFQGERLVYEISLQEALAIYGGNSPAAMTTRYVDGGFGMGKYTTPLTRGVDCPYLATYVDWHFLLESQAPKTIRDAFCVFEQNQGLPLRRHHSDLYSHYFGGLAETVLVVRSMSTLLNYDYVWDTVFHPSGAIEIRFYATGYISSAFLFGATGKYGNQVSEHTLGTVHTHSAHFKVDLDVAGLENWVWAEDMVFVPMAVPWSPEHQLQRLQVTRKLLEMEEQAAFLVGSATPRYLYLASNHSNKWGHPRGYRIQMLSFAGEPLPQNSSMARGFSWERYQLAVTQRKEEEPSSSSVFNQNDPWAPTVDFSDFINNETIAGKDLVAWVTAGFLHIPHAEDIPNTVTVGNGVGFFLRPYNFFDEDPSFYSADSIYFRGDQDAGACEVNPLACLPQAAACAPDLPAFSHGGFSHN
Source text: as §4, §3

[5] = listed as value 30 (unit not given)
[6] = listed as value 60 (unit not given)
[7] = listed as value 300 (unit not given)

Cl.Cl.NC/C=C(\F)CS(=O)(=O)c1cccc2cccnc12.O [PXS-5505, (Z)-3-fluoro-4-(quinolin-8-ylsulfonyl)but-2-en-1-amine dihydrochloride monohydrate]
tolerability in preclinical toxicity studies ([1]; 6 months): well tolerated | preclinical development including genotoxicity and toxicity studies ([1]; in vivo): successfully passed | pIC50 (Recombinant MAO-B): < 4.52 | pIC50 (DAO [2]): < 4.52 | pIC50 (Recombinant MAO-A): < 4.52 | pIC50 (Recombinant SSAO/VAP1): < 4.52 | 2D cell viability (MTS assay) (KPC CCs; PXS-5505 0.3 (unit not given)): 100 and 109.75 | 2D cell viability (MTS assay) (KPC CCs; PXS-5505 3 (unit not given)): 110.09 and 116.21 | 2D cell viability (MTS assay) (KPC CCs; PXS-5505 30 (unit not given)): 104.54 and 100.45 | 2D cell viability (MTS assay) (KPC CCs; PXS-5505 100 (unit not given)): 94.9 and 85.15 | 2D cell viability (MTS assay) (KPC CCs; PXS-5505 300 (unit not given)): 94.9 and 96.71 | effect on proliferation, 2D (KPC CCs; KPC CCs, up to 300 µM): nor did it show any effect on proliferation | viability ([3]; KPC CAFs (2D culture), CAFs, PXS-5505 0.3 (unit inferred)): 100% | viability ([3]; KPC CAFs (2D culture), CAFs, PXS-5505 3 (unit inferred)): 94.8% | viability ([3]; KPC CAFs (2D culture), CAFs, PXS-5505 30 (unit inferred)): 101% | viability ([3]; KPC CAFs (2D culture), CAFs, PXS-5505 100 (unit inferred)): 89.7% | viability ([3]; KPC CAFs (2D culture), CAFs, PXS-5505 300 (unit inferred)): 92.6% | viability ([3]; KPC cancer cells (CCs, 2D culture), Cancer cells, PXS-5505 0.3 (unit inferred)): 100% | viability ([3]; KPC cancer cells (CCs, 2D culture), Cancer cells, PXS-5505 3 (unit inferred)): 109% | viability ([3]; KPC cancer cells (CCs, 2D culture), Cancer cells, PXS-5505 30 (unit inferred)): 110% | viability ([3]; KPC cancer cells (CCs, 2D culture), Cancer cells, PXS-5505 100 (unit inferred)): 102% | viability ([3]; KPC cancer cells (CCs, 2D culture), Cancer cells, PXS-5505 300 (unit inferred)): 98.8% | processing as a substrate by DAO (DAO [4]): not processed as a substrate | Turnover by DAO as measured by H2O2 release, mean (DAO [4]; [5]): 0.9677 | Turnover by DAO as measured by H2O2 release, mean (DAO [4]; [6]): 0.9315 | Turnover by DAO as measured by H2O2 release, mean (DAO [4]; [7]): 1.1475 | processing as a substrate by SSAO/VAP-1 (SSAO): not processed as a substrate | Turnover by SSAO as measured by H2O2 release, mean (SSAO; [5]): 1.019 | Turnover by SSAO as measured by H2O2 release, mean (SSAO; [6]): 1.0116 | Turnover by SSAO as measured by H2O2 release, mean (SSAO; [7]): 1.1921
